Test results published in PMC11302339, “A series of pyrimidine-based antifungals with anti-mold activity disrupt ER function in Aspergillus fumigatus” (Microbiology Spectrum, 2024).

Tests used:
[1] = system: Saccharomyces cerevisiae BY4741; assay: Generation of resistant isolates (serial passaging); format: cell-based; conditions: from 1/4 MIC, twofold increases, at least 50 generations
Procedure: Finally, we attempted to generate resistant isolates to understand the rate of resistance and potentially uncover mechanism of action. First, to determine spontaneous rates, we performed high-density plating (~2 × 10^9 cells) of C. neoformans on YPD plates containing 64 µg/mL 1 ([24]). […] Next, we employed serial passaging of both C. neoformans H99 and Saccharomyces cerevisiae BY4741 to evaluate evolved resistance upon exposure to sub-MIC concentrations. Yeast cells were grown in a 96-well format in the presence of 1/4 MIC 1, then cultures were passaged to fresh media containing a twofold increase in drug concentration. At each passage, the inoculum was diluted ~1:100 to allow ~10 generations of growth for a total of at least 50 generations over the course of the experiment.

[2] = system: S. cerevisiae heterozygous mutants; assay: Chemical haploinsufficiency screen and spot dilution validation; format: cell-based, Saccharomyces cerevisiae; conditions: YPD 32 µg/mL 1, relative to WT
Procedure: Chemical genetics screening was performed using the Saccharomyces heterozygous deletion collection (Transomic Technologies, TKY3504). Mutant strains were grown overnight in 200 µL YPD in a 96-well plate then pinned into 25 µL PBS using a 96-floating pin multiblot replicator (V&P Scientific Inc, Cat # 408FP6) and library copier (V&P Scientific Inc, Cat # 381). Cell dilutions were then pinned onto an Omni Tray (Nunc, Cat # 242811) single-well plate containing YPD with DMSO or 32 µg/mL 1 for a total of 384 spots per plate. Each plate contained at least one wild type control. Plates were incubated at 30°C and imaged every 24 hours for 4 days. Hits were called by visual evaluation. To validate hits and score growth phenotypes, serial dilutions of OD = 1.0, 0.1, 0.01, and 0.001 were prepared for each mutant from a 200 µL YPD overnight culture in a 96-well plate. Three microliters of each dilution was spotted on YPD containing DMSO or 32 µg /mL 1 and incubated for 72 hours at 30°C. The growth of each mutant on 1 was scored compared to wild-type controls as no inhibition (++++), modest (+++), or severe (+/++) growth inhibition.

Hog1 = assay: Western blotting for total and phosphorylated Hog1; format: cell-based, Cryptococcus neoformans
Procedure: C. neoformans H99 overnight cultures were diluted to OD = 0.1 in YPD and incubated at 30°C for 3 hours with shaking. Cultures were split into four subcultures and treated with DMSO or 1 µg/mL 1 (two each) for 2 hours at 30°C, then water or 1 M NaCl was added to one culture of each treatment and incubated for an additional 30 min at 30°C. Cell pellets were snap frozen and stored at −80°C. Protein was extracted in extraction buffer (10 mM HEPES, pH 7.4–7.9, 1.5 mM MgCl2, 10 mM KCl, 1 mM DTT, 1× HALT protease and phosphatase inhibitor cocktail) by bead beading for 30 s on 60 s off with incubation on ice five times. The supernatant was removed from glass beads, and protein concentration was quantified by Bradford protein assay. Twenty micrograms of protein was loaded on a 10% SDS-PAGE gel and run at 80 V. Samples were transferred to nitrocellulose membrane for 1 hour at 100 V, then the membrane was stained with Ponceau for 15 min at RT. Membranes were blocked with 5% bovine serum albumin (BSA) in Tris-buffered saline with Tween 20 (TBST) for 1 hour at room temperature, then incubated with 1:10,000 rabbit anti-p-p38 (Phospho-p38 MAPK, # 9211; Cell Signaling) in 5% BSA/TBST or 1:5,000 custom Hog1 antibody # R02361 (GenScript) overnight at 4°C. […]

sheep red blood cells = assay: Hemolysis assay; format: cell-based; conditions: 2 hours at RT
Procedure: Hemolysis assays were performed with defibrinated sheep’s blood (Lampire, Cat # 7239001). Blood was washed three times with PBS then resuspended to ~50% hematocrit in PBS. Drugs were diluted to generate a twofold dilution series in 200 µL PBS with equal DMSO concentration across the series, then red blood cells were added for a final concentration of 2% hematocrit. Cells were incubated at RT for 2 hours in a v-bottom microtiter plate; then, plates were spun down; and the supernatant was transferred to a flat-bottomed microtiter plate for absorbance measurement at 570 nm. Drugs were tested in technical triplicate in at least two independent assays performed on different lots of blood.

[3] = system: S. cerevisiae heterozygous mutants; assay: Chemical haploinsufficiency screen and spot dilution validation; format: cell-based; conditions: Saccharomyces cerevisiae, read-out: inhibition of wild-type growth

OC1CC(c2cc(N3CCC(CCc4ccccc4)CC3)ncn2)C1 (centres unmarked) [compound 1]
++: Growth ([2]; mutant YGL047W ALG14) | Growth ([2]; mutant YHR068W DYS1) | Growth ([2]; mutant YHR143W-A RPC10) | Growth ([2]; mutant YIL171W) | Growth ([2]; mutant YKL108W SLD2) | Growth ([2]; mutant YKL154W SRP102) | Growth ([2]; mutant YKL180W RPL17A) | Growth ([2]; mutant YKL189W HYM1) | Growth ([2]; mutant YPR136C Dubious_RRP9 overlap)
+: Growth ([2]; mutant YML085C TUB1) | Growth ([2]; mutant YPL142C (no gene name)) | Growth ([2]; mutant YPL143W RPL33A) | Growth ([2]; mutant YPL235W RVB2) | Growth ([2]; mutant YPL237W SUI3) | Growth ([2]; mutant YPR181C SEC23) | Growth ([2]; mutant YPR187W RPO26)
did not recover stable resistance: evolved resistance, serial passaging [1]
350 µg/mL: LD50 (hemolysis) (sheep red blood cells; 2% hematocrit)
did not observe hemolysis: hemolysis of red blood cells (sheep red blood cells; up to 128 µg/mL)
activation of Hog1 via phosphorylation: Hog1 phosphorylation (Hog1; 1 µg/mL 1 alone for 2 hours at 30°C)
+++: Growth ([2]; mutant YDR361C BCP1) | Growth ([2]; mutant YDR362C TFC6) | Growth ([2]; mutant YDR373W FRQ1) | Growth ([2]; mutant YDR416W SYF1) | Growth ([2]; mutant YER012W PRE1) | Growth ([2]; mutant YFR051C RET2) | Growth ([2]; mutant YGL116W CDC20) | Growth ([2]; mutant YGR190C Dubious_HIP1 overlap) | Growth ([2]; mutant YGR191W HIP1) | Growth ([2]; mutant YGR216C GPI1) | Growth ([2]; mutant YHR062C RPP1) | Growth ([2]; mutant YHR072W ERG7) | Growth ([2]; mutant YHR107C CDC12) | Growth ([2]; mutant YHR122W CIA2) | Growth ([2]; mutant YIL033C BCY1) | Growth ([2]; mutant YIL104C SHQ1) | Growth ([2]; mutant YIL109C SEC24) | Growth ([2]; mutant YIL144W NDC80) | Growth ([2]; mutant YIL147C SLN1) | Growth ([2]; mutant YIL150C MCM10) | Growth ([2]; mutant YIR012W SQT1) | Growth ([2]; mutant YKL049C CSE4) | Growth ([2]; mutant YMR185W RTP1) | Growth ([2]; mutant YMR277W FCP1) | Growth ([2]; mutant YMR314W PRE5) | Growth ([2]; mutant YNL287W SEC21) | Growth ([2]; mutant YPL131W RPL5) | Growth ([2]; mutant YPR035W GLN1)
additive: Hog1 phosphorylation, combination with salt (Hog1; 1 µg/mL 1 for 2 hours, then 1 M NaCl 30 min)
~50%: inhibition at 32 µg/mL [3]
